Data taken from US20190388411A1, “NSAID ADMINISTRATION AND RELATED COMPOSITIONS, METHODS AND SYSTEMS” (Alfasigma S.p.A., priority 2013, published 2019).
Marks after values point to notes of the source that are not given here.

How the values were obtained:
malondialdehyde (MDA) = test: Tissue malondialdehyde (MDA) levels in jejunum and ileum, colorimetric assay (Example 17); assay type: in vivo, male Albino Sprague Dawley rats; details: rats, indomethacin […] BID or diclofenac 4 mg/kg BID, 14 days
Method: (§1) (indomethacin plus omeprazole ulcerated controls)
(§2) Groups 1 to 11 were treated as follows:
(§3) The whole intestinal tract was removed and intestinal tissue specimens processed for the evaluation of tissue myeloperoxidase (MPO) levels, an index of tissue neutrophils infiltration, of tissue malondialdehyde (MDA) levels, an index of lipid peroxidation and histological analysis of intestinal damage in jejunum and ileum.
MDA concentration in intestinal tissues was determined to obtain quantitative estimates of membrane lipid peroxidation as described by Fornai et al., NSAID-Induced Enteropathy: Are the Currently Available Selective COX-2 Inhibitors All the Same? J Pharmacol Exp Ther January 2014 348:86-95. For this purpose, intestinal tissue was excised, weighed, minced by forceps, homogenized in 2 ml of cold buffer consisting of Tris-HCl 20 mM, at pH 7.4, using a polytron homogenizer (QIAGEN, Milan, Italy), and centrifuged at 1,500 g for 10 min at 4° C. Aliquots of supernatants were then used for subsequent assay procedures. Mucosal MDA concentrations were estimated using a colorimetric assay kit (Cayman Chemical, Ann Arbor, Mich., U.S.A.). Results were expressed as nanomoles of MDA per milligram of intestinal tissue.

[1] = Blood hemoglobin levels in indomethacin- and diclofenac-induced enteropathy in rats (Example 17); assay type: in vivo, male Albino Sprague Dawley rats; details: 14 days; for Blood hemoglobin levels (in words): indomethacin […] BID, diclofenac 4 mg/kg BID, omeprazole 0.7 mg/kg/day, gastroresistant rifaximin 50 mg/kg BID, as named in the label; for Hemoglobin (g/dl): indomethacin […] BID or diclofenac 4 mg/kg BID
Method: (§4) A total of one hundred forty two (142) male Albino Sprague Dawley rats, 500 to 600 g body weight (40-week old) were assessed.
(§5) Group 1: ten animals treated with drug vehicle for 14 days (normal controls).
(§6) Group 6: twelve omeprazole-treated animals co-treated with gastroresistant rifaximin (50 mg/kg BID) for 14 days (omeprazole controls)
(§7) The enteropathy induced using diclofenac was carried out in the groups 8 to 11 as follows:
(§8) Group 8: fifteen animals treated with diclofenac 4 mg/kg BID (diclofenac ulcerated control
(§9) Group 9: fifteen animals treated with diclofenac 4 mg/kg BID and omeprazole 0.7 mg/kg once daily (diclofenac and omeprazole ulcerated control)
(§10) Group 10: twelve diclofenac-treated animals co-treated with gastroresistant rifaximin (50 mg/kg BID) for 14 days
(§11) Group 11: twelve diclofenac- and omeprazole-treated animals co-treated with gastroresistant rifaximin (50 mg/kg BID) for 14 days
as §2
(§12) Group 1 received 1% methylcellulose (0.3 ml/rat) and 1% methylcellulose (1 ml/rat) for 14 days.
(§13) Group 6 received gastroresistant rifaximin (50 mg/kg; 12 rats/group) suspended in 1% methylcellulose (1 ml/rat), twice daily, 1 hour before omeprazole 0.7 mg/kg once daily
(§14) Group 8 non-fasted rats were treated for 14 days with diclofenac 4 mg/kg BID by intragastric route, suspended in 1% methylcellulose and administered in a volume of 0.3 ml/rat.
(§15) Group 9 non-fasted rats were treated for 14 days with diclofenac 4 mg/kg BID, plus omeprazole 0.7 mg/kg once daily, by intragastric route, suspended in 1% methylcellulose and administered in a volume of 0.3 ml/rat.
(§16) Group 10 received gastroresistant rifaximin (50 mg/kg; 12 rats/group) suspended in 1% methylcellulose (1 ml/rat), twice daily, 1 hour before diclofenac administration
(§17) Group 11 received gastroresistant rifaximin (50 mg/kg; 12 rats/group) suspended in 1% methylcellulose (1 ml/rat), twice daily, 1 hour before diclofenac administration plus omeprazole 0.7 mg/kg once daily.
(§18) Twenty four hours after the last dose, the rats were euthanized and samples of blood were collected for the assessment of hemoglobin levels.
Haemoglobin analysis was performed on blood samples collected as reported above, using a Quantichrom Hemoglobin assay kit (Bioassay Systems, Hayward, Calif., USA) and expressed as g/dL.

[2] = test system: indomethacin- and diclofenac-induced small intestinal damage; test: Microscopical analysis of small intestinal damage in jejunum and ileum (Example 17); assay type: in vivo, male Albino Sprague Dawley rats; details: rats, 14 days; for Ileum lesions type 1, 2 and 3 (in words) / Jejunal lesions type 1, 2 and 3 (in words): indomethacin […] BID, diclofenac 4 mg/kg BID, omeprazole 0.7 mg/kg/day, gastroresistant rifaximin 50 mg/kg BID, as named in the label; for Ileum Type 1 lesion (%) / Ileum Type 2 lesion (%) / Ileum Type 3 lesion (%) / Jejunum Type 1 lesion (%) / Jejunum Type 2 lesion (%) / Jejunum Type 3 lesion (%): indomethacin […] BID or diclofenac 4 mg/kg BID
Method: as §5, §6, §7, §8, §9, §10, §11, §2, §12, §13, §14, §15, §16, §17, §3
Upon removal, the whole intestinal tract was immediately injected with 10% formalin and left in the same fixative solution. After 30 min, it was opened along the anti-mesenteric border, cleaned of fecal content and fixed in 10% formalin for 24 h. Tissue samples were taken as described below in order to rule out any bias:
The full length of the small intestine was measured.
Sections of jejunum and ileum were embedded into paraffin blocks and cut into […] serial 7-8 μm sections. The slices were cut at two different points of the block: two on the surface and three at a deeper level. Each slice was placed on the slide for staining with haematoxylin and eosin.
The intestinal damage was classified as reported in Table 27 wherein reference is made with respect to the histological appearance of type 1, 2 and 3 lesions of jejunum and ileum to the illustration of FIG. 1
The statistical significance of data was evaluated by one way analysis of variance (ANOVA) followed by post hoc analysis by Student-Newman-Keuls test, and P values lower than 0.05 were considered significant. All statistical procedures were performed using GraphPad Prism 3.0 software (GraphPad Prism, San Diego, Calif., USA).

myeloperoxidase (MPO) [3] = test: Tissue myeloperoxidase (MPO) levels in jejunum and ileum, ELISA (Example 17); assay type: in vivo, male Albino Sprague Dawley rats; details: rats, indomethacin […] BID or diclofenac 4 mg/kg BID, 14 days
Method: as §1, §2, §3
MPO was assessed as described by Fornai et al., NSAID-Induced Enteropathy: Are the Currently Available Selective COX-2 Inhibitors All the Same, J Pharmacol Exp Ther January 2014 348:86-95 and assumed as a quantitative index to estimate the degree of intestinal wall infiltration by polymorphonuclear cells.
Specimens of 30 mg intestinal tissues were homogenized on ice with a polytron homogenizer (QIAGEN, Milan, Italy) in 0.6 mL of ice-cold lysis buffer consisting of 200 mM NaCl, 5 mM EDTA, 10 mM Tris, 10% glycerine, 1 mM phenylmethylsulfonyl fluoride, 1 μg/ml leupeptin and 28 μg/ml aprotinin at pH 7.4. The homogenate was centrifuged 2 times at […] at 1.500 g. The supernatant was diluted 1:5 and used for determination of MPO concentration by means of enzyme-linked immunosorbent assay (ELISA). (Hycult Biotech, Uden, Netherlands). All samples were assayed as described in Example 15. The results were expressed as nanograms of MPO per milligram of intestinal tissue.

[4] = Mortality in indomethacin- and diclofenac-induced enteropathy in rats (Example 17); details: 14 days, indomethacin […] BID, diclofenac 4 mg/kg BID, omeprazole 0.7 mg/kg/day, gastroresistant rifaximin 50 mg/kg BID, as named in the label
Method: as §4, §5, §6, §7, §8, §9, §10, §11, §2, §12, §13, §14, §15, §16, §17

[5] = test system: indomethacin - induced microscopic intestinal damage; test: Histological analysis of intestinal damage in jejunum and ileum (Example 16); assay type: in vivo, male Albino Sprague Dawley rats; details: rats; indomethacin […] BID 14 days, alone or with gastroresistant rifaximin 25 and 50 mg/kg BID or rifaximin polymorph alpha 50 mg/kg BID
Method: (§19) The whole intestinal tract was removed and processed for the evaluation of tissue myeloperoxidase (MPO) levels and histological analysis of intestinal damage in jejunum and ileum.
Pharmacol. Ther. 1993; 7:29-39. Upon removal, the whole intestinal tract was immediately injected with 10% formalin and left in the same fixative solution. After 30 min, it was opened along the anti-mesenteric border, cleaned of fecal content and fixed in 10% formalin for 24 h. Tissue samples were taken as described below and the full length of small intestine was measured.
In particular the following tissue samples were taken • Ileum: 1 cm of tissue proximal to the ileo-cecal valve was discarded and two specimens of 1.5-2 cm of ileum were taken at this edge as well as 5 cm away from the first ileum sample • Proximal jejunum: two specimens of 1.5-2 cm were taken 5 cm away from both the proximal and distal end of the 37.5% of the small intestine total length. • Distal jejunum: two specimens of 1.5-2 cm were taken 5 cm away from both the proximal and distal end of 81% of small intestine's total length.
After fixation, tissues were embedded into paraffin blocks and were cut into consecutive serial 3-μm sections for staining with hematoxylin and eosin. Histological damage was assessed by two observers, blind to the treatment. Each section was given a score of lesion (Type 1 to 3) (TABLE 23).
Quantitative assessment of histological damage was expressed as percentage of the total length of lesions over the total length of the histological section.

myeloperoxidase (MPO) [6] = test: Tissue myeloperoxidase (MPO) levels in jejunum and ileum, ELISA (Example 16); assay type: in vivo, male Albino Sprague Dawley rats; details: rats; indomethacin […] BID 14 days, alone or with gastroresistant rifaximin 25 or 50 mg/kg BID or rifaximin polymorph alpha 50 mg/kg BID
Method: as §19
Specimens of intestinal tissues (30 mg) were homogenized on ice with a polytron homogenizer (QIAGEN, Milan, Italy) in 0.6 mL of ice-cold lysis buffer (200 mM NaCl, 5 mM EDTA, 10 mM Tris, 10% glycerine, 1 mM PMSF, 1 μg/ml leupeptin and 28 μg/ml aprotinin (pH 7.4). The homogenate was centrifuged 2 times at 4° C. for 15 min at 1.500 g. The supernatant was diluted 1:5 and used for determination of MPO concentration by means of enzyme-linked immunosorbent assay (ELISA) (Hycult Biotech, Uden, Netherlands). All samples were assayed within 2 day after collection. The results were expressed as nanograms of MPO per milligram of intestinal tissue.

[7] = Blood hemoglobin levels in indomethacin-induced enteropathy in rats (Example 16); assay type: in vivo, male Albino Sprague Dawley rats
Method: as §18
Hemoglobin analysis was performed on rat blood samples collected as reported above, by means of Quantichrom Hemoglobin assay kit (Bioassay Systems, Hayward, Calif., USA) and expressed as g/dL.

## O=C(O)Cc1ccccc1Nc1c(Cl)cccc1Cl [Diclofenac, diclofenac]
Malondialdehyde (MDA)
  Ileum MDA (nmol/mg tissue): 67.1* nmol/mg tissue
  Jejunum MDA (nmol/mg tissue): 69.44* nmol/mg tissue
Malondialdehyde (MDA); listed as diclofenac
  Ileum MDA (nmol/mg tissue): 67.1 nmol/mg tissue
  Jejunum MDA (nmol/mg tissue): 69.44 nmol/mg tissue
[1]
  Blood hemoglobin levels (in words): significant decrease in blood haemoglobin concentration
  Hemoglobin (g/dl): 11.3* g/dl
[2]
  Ileum lesions type 1, 2 and 3 (in words): occurrence of various degrees of type 1, 2 and 3 lesions in both jejunum and ileum
  Jejunal lesions type 1, 2 and 3 (in words): occurrence of various degrees of type 1, 2 and 3 lesions in both jejunum and ileum
  Ileum Type 1 lesion (%): 26* %
  Ileum Type 2 lesion (%): 8.8* %
  Ileum Type 3 lesion (%): 3* %
  Jejunum Type 1 lesion (%): 24.6* %
  Jejunum Type 2 lesion (%): 4.2* %
  Jejunum Type 3 lesion (%): 0.8* %
Myeloperoxidase (MPO) [3]
  Ileum MPO (ng/mg tissue): 19.35* ng/mg tissue
  Jejunum MPO (ng/mg tissue): 20.37* ng/mg tissue
Myeloperoxidase (MPO) [3]; listed as diclofenac
  Ileum MPO (ng/mg tissue): 19.35 ng/mg tissue
  Jejunum MPO (ng/mg tissue): 20.37 ng/mg tissue
[4]
  Mortality (dead/treated animals): 7/15
[4]; listed as diclofenac
  Mortality (%): 46.7%

## COc1ccc2c(c1)c(CC(=O)O)c(C)n2C(=O)c1ccc(Cl)cc1 [Indomethacin, indomethacin]
[5]
  Ileum type 1 lesions, microscopic assessment (in words): occurrence of type 1 and 2 lesions
  Ileum type 2 lesions, microscopic assessment (in words): occurrence of type 1 and 2 lesions
  Ileum type 3 lesions, microscopic assessment (in words): no significant differences were detected for type 3 lesions
  Jejunum type 1 lesions, microscopic assessment (in words): occurrence of various degrees of type 1, 2 and 3 lesions
  Jejunum type 2 lesions, microscopic assessment (in words): occurrence of various degrees of type 1, 2 and 3 lesions
  Jejunum type 3 lesions, microscopic assessment (in words): occurrence of various degrees of type 1, 2 and 3 lesions
Myeloperoxidase (MPO) [6]
  Ileum tissue MPO levels (in words): significant increase in tissue MPO levels
  Jejunum tissue MPO levels (in words): significantly increased
Malondialdehyde (MDA)
  Ileum MDA (nmol/mg tissue): 54.47* nmol/mg tissue
  Jejunum MDA (nmol/mg tissue): 66.15* nmol/mg tissue
Malondialdehyde (MDA); listed as indomethacin
  Ileum MDA (nmol/mg tissue): 54.47 nmol/mg tissue
  Jejunum MDA (nmol/mg tissue): 66.15 nmol/mg tissue
[1]
  Blood hemoglobin levels (in words): significant decrease in blood haemoglobin concentration
  Hemoglobin (g/dl): 11.6* g/dl
[2]
  Ileum lesions type 1, 2 and 3 (in words): occurrence of various degrees of type 1, 2 and 3 lesions in both jejunum and ileum
  Jejunal lesions type 1, 2 and 3 (in words): occurrence of various degrees of type 1, 2 and 3 lesions in both jejunum and ileum
  Ileum Type 1 lesion (%): 28.3* %
  Ileum Type 2 lesion (%): 11.8* %
  Ileum Type 3 lesion (%): 5.2* %
  Jejunum Type 1 lesion (%): 36* %
  Jejunum Type 2 lesion (%): 18* %
  Jejunum Type 3 lesion (%): 4.6* %
[7]; end of the treatment period (14 days), in respect to the control
  Reduction in hemoglobin values: about 20%
[7]; indomethacin […] BID 14 days, alone or with gastroresistant rifaximin at both doses or rifaximin polymorph alpha 50 mg/kg BID
  Blood hemoglobin concentration (in words): significant decrease in blood hemoglobin concentration
[4]
  Mortality (dead/treated animals): 2/15
